The record followed here is patent US20240246955A1, “TROPOMYOSIN RECEPTOR KINASE (TRK) DEGRADATION COMPOUNDS AND METHODS OF USE” (CULLGEN (SHANGHAI), INC., priority 2021, published 2024).

Structures are written as SMILES. Some results are limits rather than exact numbers.

Common to all, as to assay type: cell-based
Experiment [1] has as its target T1, TPM3-TRKA fusion protein (Homo sapiens, UniProt P04629).
T1 construct: TPM3 (N-terminal part of tropomyosin alpha-3, natural fusion partner); endogenous in cells; host or cells: KM12 colon cancer cells; the other entry of the earlier key: TPM3 (P06753, Tropomyosin alpha-3 chain)
Description: TPM3-TRKA degradation in KM12 cells (Western blot). The note with it: 16 hours, TRK protein, immunoblot; for inhibition at 0.01 µM: 10 nM; for inhibition at 0.1 µM: 100 nM. In short, it runs like this:
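KM12 cells treated with compound at 10 nM or 100 nM for 16 h, lysed in RIPA, and TRK protein measured by immunoblot with TRK-specific antibody and chemiluminescence band quantitation. Percent degradation binned: −, none; +, <50%; ++, ≥50% but <80%; +++, ≥80%.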
For orientation: A western blot detects proteins with antibodies after separation by electrophoresis.

The test system of experiment [2] is KM12 cells. Description: KM12 cell viability assay (CellTiter-Glo). The note with it: Homo sapiens, 72 h; KM12 cells, 3 days, CellTiter-Glo. An outline of the steps:
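KM12 cells, 5000 per well, treated 3 days with 11-point 3-fold serial dilutions of heterobifunctional compounds. Viability by CellTiter-Glo luminescence, normalized to untreated cells; IC50 from least-squares nonlinear regression.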
In general terms: In ATP-based viability assays light output follows the ATP content of the culture.

Experiment [3] has as its system TRKA G595R mutated KM12 cells. Description: Cell viability assay in TRKA G595R mutated KM12 cells (CellTiter-Glo). The note with it: Homo sapiens, 72 h, 3 days. As for the experimental part:
KM12, TRKA G595R mutated KM12, HEL, and other cells were cultured at 37° C. with 5% CO2 in DMEM or RPMI 1640 Medium supplemented with 10% fetal bovine serum. Cells were authenticated using the short tandem repeat (STR) assays. Mycoplasma test results were negative.
Cells were seeded at a density of 5000 cells per well in 96-well assay plates and treated with test compounds following a 11-point 3-fold serial dilution. Three days later, cell viability was determined using the CellTiter-Glo assay kit (Promega) according to the manufacturer's instructions. The dose-response curves were determined and IC50 values were calculated using the GraphPad Prism software following a nonlinear regression (least squares fit) method.
The activities of selected compounds on cell viability (IC50 values) and TMP3-TRKA degradation (percentage degradation at 10 nM) in KM12 cells or KM12-G595R mutated KM12 cells (KM12-G595R) are listed in Table 2.

Experiment [4] concerns the target T2, human full length TRKB (Homo sapiens, UniProt Q16620).
T2 construct: lentivirus directing expression of human full length TRKB or TRKC; expressed in transfected cells; host or cells: NIH3T3 cells, lentiviral transduction, puromycin selection
Description: TRKB degradation in NIH3T3-TRKB cells (Western blot). The note with it: 0.1 nM to 1000 nM, 16 hours, Western blot (FIG. 4B). As for the experimental part: (§1) NIH3T3 cells were infected with lentivirus directing expression of human full length TRKB or TRKC. Cells were then selected using 1 ug/ml puromycin to establish NIH3T3-TRKB and NIH3T3-TRKC cell lines that stably expressed human TRKB or TRKC, respectively.
(§2) HEL cells expressing endogenous TRKA, and NIH3T3-TRKB and NIH3T3-TRKC cells prepared as described above were treated with heterobifunctional compound CPD-031 at 0.1 nM, 1 nM, 10 nM, 100 nM and 1000 nM for 16 hours.
(§3) Cultured cells were washed with cold PBS once and lysed in cold RIPA buffer supplemented with protease inhibitors and phosphatase inhibitors (Beyotime Biotechnology). The solutions were then incubated at 4° C. for 30 minutes with gentle agitation to fully lyse cells. Cell lysates were centrifuged at 13,000 rpm for 10 minutes at 4° C. and pellets were discarded. Total protein concentrations in the lysates were determined by BCA assays (Beyotime Biotechnology). Cell lysates were mixed with Laemmli loading buffer to 1× and heated at 99° C. for 5 min. Proteins were resolved on SDS-PAGE and visualized by chemiluminescence. Images were taken by a ChemiDoc MP Imaging system (Bio-Rad). Protein bands were quantitated using the software provided by Bio-Rad.

Experiment [5] concerns the target T3, wildtype TRKA protein (Homo sapiens, UniProt P04629).
T3 construct: HEL cells expressing endogenous TRKA; endogenous in cells; host or cells: HEL erythroleukemia cells
Description: Wildtype TRKA degradation in HEL cells (Western blot). The note with it: 0.1 nM to 1000 nM, 16 hours, Western blot (FIG. 4A). As for the experimental part:
HEL cells were treated with heterobifunctional compounds CPD-019 and CPD-002 at 10 nM or 100 nM for 16 hours.
as §2, §3

Experiment [6] has as its target T4, human full length TRKC (Homo sapiens, UniProt Q16288).
T4 construct: lentivirus directing expression of human full length TRKB or TRKC; expressed in transfected cells; host or cells: NIH3T3 cells, lentiviral transduction, puromycin selection
Description: TRKC degradation in NIH3T3-TRKC cells (Western blot). The note with it: 0.1 nM to 1000 nM, 16 hours, Western blot (FIG. 4C). As for the experimental part:
as §1, §2, §3

T1 sequence (P04629 with tags, fused parts or gaps): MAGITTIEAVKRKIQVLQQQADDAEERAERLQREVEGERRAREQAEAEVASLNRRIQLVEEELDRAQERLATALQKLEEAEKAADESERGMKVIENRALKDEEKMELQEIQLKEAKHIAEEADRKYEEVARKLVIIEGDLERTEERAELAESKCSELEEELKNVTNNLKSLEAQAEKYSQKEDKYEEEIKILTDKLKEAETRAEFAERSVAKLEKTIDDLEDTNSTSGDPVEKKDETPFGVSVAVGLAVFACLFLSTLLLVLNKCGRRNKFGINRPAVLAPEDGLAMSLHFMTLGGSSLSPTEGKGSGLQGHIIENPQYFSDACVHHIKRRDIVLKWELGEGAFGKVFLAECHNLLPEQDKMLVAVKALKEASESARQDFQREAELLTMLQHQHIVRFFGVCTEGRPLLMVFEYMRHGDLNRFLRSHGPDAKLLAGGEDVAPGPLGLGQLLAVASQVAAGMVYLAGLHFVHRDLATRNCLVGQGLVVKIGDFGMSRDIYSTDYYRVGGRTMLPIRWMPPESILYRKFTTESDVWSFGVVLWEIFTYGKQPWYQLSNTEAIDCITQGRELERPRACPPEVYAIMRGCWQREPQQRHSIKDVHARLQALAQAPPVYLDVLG
T2 sequence (Q16620 32-822): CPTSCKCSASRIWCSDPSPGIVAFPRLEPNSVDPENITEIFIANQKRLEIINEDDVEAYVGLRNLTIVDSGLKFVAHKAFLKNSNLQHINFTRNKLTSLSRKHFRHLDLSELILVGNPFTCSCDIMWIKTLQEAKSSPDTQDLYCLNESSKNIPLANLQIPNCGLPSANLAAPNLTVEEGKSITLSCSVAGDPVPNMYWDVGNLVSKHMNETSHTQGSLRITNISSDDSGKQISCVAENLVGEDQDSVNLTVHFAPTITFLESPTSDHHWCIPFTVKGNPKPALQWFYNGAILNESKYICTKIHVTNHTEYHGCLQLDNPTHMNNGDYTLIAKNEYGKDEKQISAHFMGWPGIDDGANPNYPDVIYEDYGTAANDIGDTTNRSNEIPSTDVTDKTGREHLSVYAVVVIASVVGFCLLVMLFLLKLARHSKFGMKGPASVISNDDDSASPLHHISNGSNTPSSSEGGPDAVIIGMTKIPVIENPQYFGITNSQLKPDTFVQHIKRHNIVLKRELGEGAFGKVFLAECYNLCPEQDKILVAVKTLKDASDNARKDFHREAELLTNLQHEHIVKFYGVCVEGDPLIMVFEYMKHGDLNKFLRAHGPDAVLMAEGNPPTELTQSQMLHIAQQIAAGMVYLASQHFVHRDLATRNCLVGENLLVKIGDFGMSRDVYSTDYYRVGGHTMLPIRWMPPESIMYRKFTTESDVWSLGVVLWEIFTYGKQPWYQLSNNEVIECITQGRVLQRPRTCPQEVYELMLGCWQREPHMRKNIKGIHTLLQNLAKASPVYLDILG
T4 sequence (Q16288 32-839): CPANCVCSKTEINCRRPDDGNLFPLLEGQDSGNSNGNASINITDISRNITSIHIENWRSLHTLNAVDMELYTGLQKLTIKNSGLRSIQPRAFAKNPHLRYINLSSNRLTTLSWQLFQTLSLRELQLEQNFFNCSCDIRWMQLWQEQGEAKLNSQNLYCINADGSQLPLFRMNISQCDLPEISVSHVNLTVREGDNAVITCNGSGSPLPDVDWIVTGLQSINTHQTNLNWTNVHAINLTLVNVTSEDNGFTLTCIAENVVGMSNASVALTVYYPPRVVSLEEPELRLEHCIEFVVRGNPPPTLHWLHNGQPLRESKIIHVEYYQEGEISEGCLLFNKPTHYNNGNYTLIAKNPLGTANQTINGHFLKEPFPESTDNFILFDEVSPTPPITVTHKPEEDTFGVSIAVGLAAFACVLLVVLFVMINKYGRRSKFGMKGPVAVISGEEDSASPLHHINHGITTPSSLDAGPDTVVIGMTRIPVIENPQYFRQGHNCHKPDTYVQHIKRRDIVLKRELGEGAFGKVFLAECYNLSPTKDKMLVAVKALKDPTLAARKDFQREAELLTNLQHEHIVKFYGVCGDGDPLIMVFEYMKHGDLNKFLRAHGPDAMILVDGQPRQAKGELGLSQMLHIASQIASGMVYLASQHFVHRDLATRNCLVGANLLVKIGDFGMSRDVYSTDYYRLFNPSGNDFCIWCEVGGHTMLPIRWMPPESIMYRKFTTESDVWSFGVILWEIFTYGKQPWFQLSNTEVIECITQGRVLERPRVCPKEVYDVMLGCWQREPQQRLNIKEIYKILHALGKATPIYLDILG
T3 sequence (P04629 33-796): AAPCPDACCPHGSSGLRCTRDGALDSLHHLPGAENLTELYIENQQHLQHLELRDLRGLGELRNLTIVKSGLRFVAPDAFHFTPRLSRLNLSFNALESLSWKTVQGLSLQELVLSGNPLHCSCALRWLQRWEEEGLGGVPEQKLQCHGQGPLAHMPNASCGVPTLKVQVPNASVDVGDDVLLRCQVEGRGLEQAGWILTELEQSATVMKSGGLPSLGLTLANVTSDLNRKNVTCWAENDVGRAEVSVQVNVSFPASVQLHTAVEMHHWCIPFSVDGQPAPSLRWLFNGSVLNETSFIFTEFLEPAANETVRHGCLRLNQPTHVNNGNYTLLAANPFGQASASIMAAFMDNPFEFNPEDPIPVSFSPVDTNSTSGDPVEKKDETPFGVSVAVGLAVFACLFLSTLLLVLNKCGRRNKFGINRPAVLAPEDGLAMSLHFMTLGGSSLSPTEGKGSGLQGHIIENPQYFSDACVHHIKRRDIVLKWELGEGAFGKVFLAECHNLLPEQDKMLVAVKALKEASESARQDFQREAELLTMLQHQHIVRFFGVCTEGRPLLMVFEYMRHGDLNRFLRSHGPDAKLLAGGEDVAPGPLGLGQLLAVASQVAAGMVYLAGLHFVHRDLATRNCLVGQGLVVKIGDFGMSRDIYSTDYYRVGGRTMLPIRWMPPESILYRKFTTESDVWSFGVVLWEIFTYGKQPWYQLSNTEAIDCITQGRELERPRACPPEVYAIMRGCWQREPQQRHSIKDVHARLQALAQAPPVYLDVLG

Regarding `COCCN1C[C@@H](NC(=O)Nc2c(C)c(-c3cnc(N4CCN(CCNc5cccc6c5C(=O)N(C5CCC(=O)NC5=O)C6=O)CC4)nc3)nn2-c2ccccc2)[C@H](c2cccc(F)c2)C1` (stereo partly drawn) [CPD-030, 1-(3-(2-(4-(2-((2-(2,6-dioxopiperidin-3-yl)-1,3-dioxoisoindolin-4-yl)amino)ethyl)piperazin-1-yl)pyrimidin-5-yl)-4-methyl-1-phenyl-1H-pyrazol-5-yl)-3-((3S,4R)-4-(3-fluorophenyl)-1-(2-methoxyethyl)pyrrolidin-3-yl)urea], in experiment [1], the inhibition (as a rule, the drop in the measured response relative to a control, in per cent) at 0.01 µM was 50 to 800% and the inhibition at 0.1 µM fell in the range of 50 to 800%. In experiment [2], 1.09 nM corresponded to half-maximal inhibition (IC50). Also, 5.13 nM corresponded to half-maximal inhibition in experiment [3] (IC50).
As for `COCCN1C[C@@H](NC(=O)Nc2c(C)c(-c3cnc(N4CCN(CCNc5ccc6c(c5)C(=O)N(C5CCC(=O)NC5=O)C6=O)CC4)nc3)nn2-c2ccccc2)[C@H](c2cccc(F)c2)C1` (stereo partly drawn) [CPD-031, 1-(3-(2-(4-(2-((2-(2,6-dioxopiperidin-3-yl)-1,3-dioxoisoindolin-5-yl)amino)ethyl)piperazin-1-yl)pyrimidin-5-yl)-4-methyl-1-phenyl-1H-pyrazol-5-yl)-3-((3S,4R)-4-(3-fluorophenyl)-1-(2-methoxyethyl)pyrrolidin-3-yl)urea], in experiment [1], the inhibition at 0.01 µM was above 80% and the inhibition at 0.1 µM is above 80%. Besides, the TRKB protein levels result in experiment [4] was “minimal reduction”. In addition, in experiment [2], half-maximal inhibition (IC50) was put at 2.04 nM. Besides, the “wildtype TRKA protein levels in HEL cells” value in experiment [5] is “significantly reduced”. The concentration for half-maximal inhibition (IC50) (as a rule, the concentration needed to halve the response being measured) in experiment [3] was 6.11 nM. In experiment [6], the TRKC protein levels result was “minimal reduction”.
As to `COCCN1C[C@@H](NC(=O)Nc2c(C)c(-c3cnc(N4CCN(CCCc5ccc6c(c5)C(=O)N(C5CCC(=O)NC5=O)C6=O)CC4)nc3)nn2-c2ccccc2)[C@H](c2cccc(F)c2)C1` (stereo partly drawn) [CPD-032, 1-(3-(2-(4-(3-(2-(2,6-dioxopiperidin-3-yl)-1,3-dioxoisoindolin-5-yl)propyl)piperazin-1-yl)pyrimidin-5-yl)-4-methyl-1-phenyl-1H-pyrazol-5-yl)-3-((3S,4R)-4-(3-fluorophenyl)-1-(2-methoxyethyl)pyrrolidin-3-yl)urea], in experiment [1], the inhibition at 0.01 µM is above 80% and the inhibition at 0.1 µM is above 80%. Moreover, the IC50 in experiment [2] was 13.7 nM. For the same compound, the IC50 in experiment [3] was 18.2 nM.
Take `COCCN1C[C@@H](NC(=O)Nc2c(C)c(-c3cnc(N4CCN(CCc5ccc6c(c5)C(=O)N(C5CCC(=O)NC5=O)C6=O)CC4)nc3)nn2-c2ccccc2)[C@H](c2cccc(F)c2)C1` (stereo partly drawn) [CPD-033, 1-(3-(2-(4-(2-(2-(2,6-dioxopiperidin-3-yl)-1,3-dioxoisoindolin-5-yl)ethyl)piperazin-1-yl)pyrimidin-5-yl)-4-methyl-1-phenyl-1H-pyrazol-5-yl)-3-((3S,4R)-4-(3-fluorophenyl)-1-(2-methoxyethyl)pyrrolidin-3-yl)urea]: in experiment [1], the inhibition at 0.01 µM is 50 to 800% and the inhibition at 0.1 µM lay within 50 to 800%. The IC50 in experiment [2] stood at 14.4 nM. The same compound displayed a half-inhibitory concentration (IC50) in experiment [3] of 94.6 nM.
